Results: US5221692A, “Ether linked and relatively nonpungent analogues of N-nonanoyl vanillylamide” (National Science Council, priority 1991, dated 1993)
Like-named read-outs stand apart in the source and are kept apart here.

Experiments:
[1] = system: acetic acid-induced writhing in mice; test: Acetic acid-induced writhing (antinociceptive test); format: in vivo, male mice (ddk strain); conditions: for ED50: Mus musculus, ip, 0.5 h, read-out: ED50 (95% C.L.); for Potency ratio: indomethacin 1.00
Procedure: Evaluation of antinociceptive effects Following the method described by Koster et al., Fed. proc. 18, 412 (1959), antinociceptive tests were carried out in male mice after intraperitoneal administration of NVA and its analogues. Briefly, four groups of eight male mice (ddk strain) weighing 18-22 g were brought to the laboratory on the day prior to study, and housed overnight with free access to food and water. Solutions of NVA and its analogues, as well as indomethacin were made up to 10% ethanol, 10% […] 80% saline, and then diluted with saline to the required concentrations. The test solution was administered by intraperitoneal injection with single dose of 0.2 mL (vehicle administered as control). 20 min after injection, 0.2 mL of 0.7% acetic acid was injected intraperitoneally to induce writhing. Following injection, the mice were placed […] acid injection, a writhe being defined as a sequence of arching of the back, followed by pelvic rotation and hind limb extension.
^a) Writhes were counted for 30 min after injection of acetic acid
^b) ED50 and 95% confidence limits were calculated by the
Litchfield and Wilcoxon method.

[2] = system: right eye of male Wistar rats; test: Wiping test (potency of pungency); format: in vivo
Procedure: The wiping test was performed as described by Szolcsanyl and Jansco-Gabor, Arzneim.-Forsch./Drug Res. 25, 1877 (1975). Briefly, solutions of CAP and its analogues were prepared as described above in successive tenfold dilutions. Each dilution was dropped into the right eye (vehicle being administered to the left eye as negative control) of male Wistar rats weighing 180-250 g, and the total number of protective movements (scratching, wiping of the eye with the foreleg) was counted for 30 min. Each concentration was applied to a total of 6 rats, and a dose-response curve were obtained form the mean value of each group. […] On the basis of the MPP values thus obtained, RPP (relative pain-producing potency) values were determined with respect to the pain-producing potency of CAP, which was taken as 1000.
^a) Methods are described by Szolcsanyi & JanscoGabor.

[3] = oral; cited from earlier work
[4] = intraperitoneal, mice, acetic acid 20 min after injection, writhes counted for 30 min, 95% confidence limits, Litchfield and Wilcoxon
[5] = relative to capsaicin, taken as 1000

| SMILES | ED50 [1, 4] [mg/kg] | Potency ratio ([1]; intraperitoneal, mice) | other results |
| --- | --- | --- | --- |
| COc1ccc2c(c1)c(CC(=O)O)c(C)n2C(=O)c1ccc(Cl)cc1 [Indomethacin, reference compound] | 1.1 |  |  |
| COc1cc(CNC(=O)CCCC/C=C/C(C)C)ccc1O [Capsaicin, trans-8-methyl-N-vanillyl-6-nonenamide] | 0.07 | 15.71 | MPP (Moderate pain-producing potency) ([2]; concentration inducing 32 scratchings, eye instillation, rats, 30 min): 90 µg/mL; median response (number of scratchings) ([2]; counted for 30 min, eye instillation, rats): 32 scratchings; RPP (Relative pain-producing potency) [2, 5]: 1000 |
| CCCCCCCCC(=O)NCc1ccc(OCC(=O)O)c(OC)c1 [Compound 5] | 0.04 | 27.50 | antinociceptive effect (in words) ([1]; intraperitoneal, mice): the most potent in its antinociceptive effect |
| CCCCCCCCC(=O)NCc1ccc(OCCO)c(OC)c1 [Compound 6, N-(4-o-glycol-3-methoxybenzyl)-nonamide] | 0.14 | 7.86 |  |
| CCCCCCCCC(=O)NCc1ccc(O)c(OC)c1 [NVA, N-nonanoyl vanillylamide] |  | 13.75 | RPP (Relative pain-producing potency) [2, 5]: 409; ED50 [1]: 0.08 mg/kg |
| CCCCCCCCC(=O)NCc1ccc(OCC(O)CO)c(OC)c1 (stereo not shown) [Compound 4, N-(4-o-glycerol-3-methoxybenzyl)-nonamide] | 0.09 | 12.22 |  |
| CCCCCCCCC=CCCCCCCCC(=O)NCc1ccc(O)c(OC)c1 [olvanil, N-vanillyl-9-octadecenamide] |  |  | ED50 [3]: 170 mg/kg |
| CCCCCCCCC(=O)NCc1ccc(OC(=O)CCC(=O)O)c(OC)c1 [Compound 3, N-(4-o-succinicacid-3-methoxybenzyl)-nonamide] | 0.06 | 18.33 | pungency (in words) ([2]; rat, in vivo): nearly equivalent to that of NVA and CAP; MPP (Moderate pain-producing potency) ([2]; rat, in vivo, 30 min): 270 µg/mL; RPP (Relative pain-producing potency) ([2]; rat, in vivo, 30 min): 333 |
